System: patients with localized musculoskeletal pain
Experiment: Example III: case reports of 3 patients applying topical baclofen
Assay type: in vivo, human
Conditions: human, in vivo

| Compound | efficiency of earlier pain treatment |
| --- | --- |
| COc1c(O[C@@H]2O[C@H](CO)[C@@H](O)[C@H](O)[C@H]2O)cc2c(c1OC)-c1ccc(SC)c(=O)cc1[C@@H](NC(C)=O)CC2 [Thiocolchicoside] | poor efficiency |
| NCC(CC(=O)O)c1ccc(Cl)cc1 (stereo not drawn) [baclofen per os, β-(4-chlorophenyl)-γ-aminobutyric acid] | poor efficiency |

Same assay, conditions: patient, Facioscapulohumeral muscular dystrophy, before topical baclofen

| Compound | efficiency of earlier pain treatment |
| --- | --- |
| C=CC1CN2CCC1CC2C(O)c1ccnc2ccc(OC)cc12.O=C(O)c1ccccc1 (stereo not drawn) [Quinine benzoate] | poor efficiency |
| CN(C)CCC=C1c2ccccc2CCc2ccccc21 [amitriptyline] | poor efficiency |

System: patients with localized musculoskeletal pain
Experiment: Example 1: topical Baclofen cream in 19 patients, pain intensity on Visual Analogue Scale
Assay type: in vivo, human
Conditions: patient, facioscapulohumeral muscular dystrophy, before applying topical baclofen
Method: The cream was prepared with Baclofen powder mixed with a Pentravan® Base (Fagron) at a final concentration of 10% w/w.
The intensity of pain was rated using a Visual Analogue Scale (VAS) from 1 to 10.

| Compound | efficiency of earlier pain treatment |
| --- | --- |
| CN(C)CCC=C1c2ccccc2CCc2ccccc21 [amitriptyline] | poor efficiency |
| NCC1(CC(=O)O)CCCCC1 [gabapentine] | poor efficiency |
| CC(C(=O)O)c1cccc(C(=O)c2ccccc2)c1 (stereo not drawn) [ketoprofene] | poor efficiency |
| CC(=O)Nc1ccc(O)cc1 [paracetamol] | poor efficiency |
| COc1cccc(C2(O)CCCCC2CN(C)C)c1 (stereo not drawn) [tramadol] | poor efficiency |

— patent US20220008372A1, “BACLOFEN FOR USE IN THE TOPICAL TREATMENT OF LOCALIZED MUSCULOSKELETAL PAIN” (ASSISTANCE PUBLIQUE - HOPITAUX DE PARIS, priority 2018, published 2022)
